These results are taken from ChEMBL document CHEMBL4627289, “Design, synthesis and evaluation of unnatural peptides as T1R2/T1R3 PAMs” (Bioorg Med Chem Lett, 2020).

This assay has as its target T1R2/T1R3 (Homo sapiens) (UniProt Q8TE23+Q7RTX0). Briefly: Positive allosteric modulation of human TIR2/TIR3 expressed in PEAKrapid cells assessed as potentiation of sucrose-induced intracellular calcium influx by measuring sucrose EC50 at 30 uM measured for 120 secs by fluorescence based assay relative to FEMA4774. It counts as functional, cell-based. For orientation: Calcium flux is commonly read through the fluorescence of an indicator in the cells.
As for `CC(C)[C@H](N)C(=O)NC(C)(C)CC(=O)Nc1cncc(C(=O)O)c1N`, the Efficacy was found to be 61%. As for `CC(C)(CC(=O)Nc1cncc(C(=O)O)c1N)NC(=O)c1ccc(N)cc1`, the Efficacy was determined as 56%.

As for `CC(C)(CC(=O)Nc1cncc(C(=O)O)c1N)NC(=O)C[C@@H]1CCNC1`, the Efficacy was found to be 56%. For the compound `CC(C)(CC(=O)Nc1cncc(C(=O)O)c1N)NC(=O)[C@@H](N)c1ccccc1`, the Efficacy amounted to 61%.

Consider `CC(C)(CC(=O)Nc1cncc(C(=O)O)c1N)NC(=O)C1(N)CCCCC1`, for which the Efficacy was found to be 59%. The value for `CC[C@H](C)[C@H](NC(=O)[C@@H](NC(=O)OC(C)(C)C)C1CCCCC1)C(=O)NC(C)(C)CC(=O)Nc1cncc(C(=O)O)c1N` was 84%; that for `CC(C)(CC(=O)Nc1cncc(C(=O)O)c1N)NC(=O)CC1CCCC1` was 79%; that for `CC(C)C[C@H](N)C(=O)NC(C)(C)CC(=O)Nc1cncc(C(=O)O)c1N` was 73%. Turning to `CC(C)(CC(=O)Nc1cncc(C(=O)O)c1N)NC(=O)[C@@H]1CCC[C@H](N)C1`, the Efficacy turned out to be 57%. Take `CCCCCCCC/C=C\CCCCCCCC(=O)NC(C)(C)CC(=O)Nc1cncc(C(=O)O)c1N`: the Efficacy is 55%. For `CC[C@H](C)[C@H](NC(=O)[C@@H](N)C1CCCCC1)C(=O)NC(C)(C)CC(=O)Nc1cncc(C(=O)O)c1N`, the Efficacy was determined as 76%.

In the case of `CC(C)(CC(=O)Nc1cncc(C(=O)O)c1N)NC(=O)CC1CCCCC1`, the Efficacy worked out at 85%. As for `CC(C)C[C@H](NC(=O)[C@@H](N)C1CCCCC1)C(=O)NC(C)(C)CC(=O)Nc1cncc(C(=O)O)c1N`, the Efficacy stood at 77%.

As to `CC(C)(CC(=O)Nc1cncc(C(=O)O)c1N)NC(=O)[C@H]1CC[C@@H](N)CC1`, the Efficacy was determined as 58%. To `CC(C)(CC(=O)Nc1cncc(C(=O)O)c1N)NC(=O)CCC1CCCCC1` belongs 65%. Consider `CC(C)(CC(=O)Nc1cncc(C(=O)O)c1N)NC(=O)C1CCCCC1`, for which the Efficacy turned out to be 71%. With `CC(C)(CC(=O)Nc1cncc(C(=O)O)c1N)NC(=O)C(C)(C)C`, the Efficacy came out at 58%. Turning to `CC(C)(CC(=O)Nc1cncc(C(=O)O)c1N)NC(=O)C1CCNCC1`, the Efficacy came out at 56%.

For `CC(C)(CC(=O)Nc1cncc(C(=O)O)c1N)NC(=O)[C@H]1CC[C@H](N)CC1`, the Efficacy came to 55%.

For the compound `CC(C)(CC(=O)Nc1cncc(C(=O)O)c1N)NC(=O)C1CCNC1` (centres undefined), the Efficacy amounted to 55%. For the compound `CC(C)(CC(=O)Nc1cncc(C(=O)O)c1N)NC(=O)[C@H](N)C1CCCCC1`, the Efficacy stood at 59%. In the case of `CC(C)C[C@H](NC(=O)[C@@H](NC(=O)OC(C)(C)C)C1CCCCC1)C(=O)NC(C)(C)CC(=O)Nc1cncc(C(=O)O)c1N`, the Efficacy turned out to be 85%. For the compound `CC(C)(CC(=O)Nc1cncc(C(=O)O)c1N)NC(=O)CC[C@@H](N)Cc1ccccc1`, the Efficacy stood at 54%. For `CC(C)(CC(=O)Nc1cncc(C(=O)O)c1N)NC(=O)C1(c2ccccc2)CC1`, the Efficacy is 54%.

`CC(C)(CC(=O)Nc1cncc(C(=O)O)c1N)NC(=O)c1cccc2c1CCCC2`: the Efficacy stood at 73%. To `CCCCCCCC(=O)NC(C)(C)CC(=O)Nc1cncc(C(=O)O)c1N` belongs 57%; to `CC(C)(C)CC(=O)NC(C)(C)CC(=O)Nc1cncc(C(=O)O)c1N`, 64%; to `CC(C)(CC(=O)Nc1cncc(C(=O)O)c1N)NC(=O)CC1(CN)CCCCC1`, 80%.

Regarding `CC(C)(CC(=O)Nc1cncc(C(=O)O)c1N)NC(=O)[C@@H](N)C1CCCCC1`, the Efficacy amounted to 96%. With `CCCCCCC(=O)NC(C)(C)CC(=O)Nc1cncc(C(=O)O)c1N`, the Efficacy is 59%. Turning to `CCCCCCCCCCCC(=O)NC(C)(C)CC(=O)Nc1cncc(C(=O)O)c1N`, the Efficacy came to 50%. To `CC(C)(CC(=O)Nc1cncc(C(=O)O)c1N)NC(=O)[C@@H](N)CC1CCCCC1` belongs 57%. The value for `CCCCCC(=O)NC(C)(C)CC(=O)Nc1cncc(C(=O)O)c1N` was 65%; that for `CC(C)(CC(=O)Nc1cncc(C(=O)O)c1N)NC(=O)c1cccc(N)c1` was 56%.

With `CC(C)(CC(=O)Nc1cncc(C(=O)O)c1N)NC(=O)C[C@H]1CCNC1`, the Efficacy is 52%.

For `CC(C)CC(=O)NC(C)(C)CC(=O)Nc1cncc(C(=O)O)c1N`, the Efficacy came out at 60%. Take `CC(C)(CC(=O)Nc1cncc(C(=O)O)c1N)NC(=O)c1ccccc1`: the Efficacy came to 50%. As to `CC(C)C(=O)NC(C)(C)CC(=O)Nc1cncc(C(=O)O)c1N`, the Efficacy was 54%. The value for `CC(C)(CC(=O)Nc1cncc(C(=O)O)c1N)NC(=O)[C@@H](NC(=O)[C@@H](N)C1CCCCC1)C1CCCCC1` was 92%.
